Laboratory results taken from patent US12685735B2 (Foghorn Therapeutics Inc., priority 2020, dated 2026).
Like-named read-outs stand apart in the source and are kept apart here.

What was measured:
BRG-1 = BRG-1 (Homo sapiens, UniProt P51532); test: ATPase catalytic activity assay of BRG-1 (ADP-Glo); type: biochemical; conditions: ATPase catalytic activity, ADP-Glo; for IC50: read-out: BRG1 IC50 (μM)*; for Emax: read-out: BRG1 Max % Inhibition
Method in brief: (§1)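 ATPase activity of BRG-1 or BRM was read by ADP-Glo. Residual ATP was depleted (40 min, room temperature), then ADP was converted to ATP (60 min, room temperature) and measured as luciferase luminescence.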

BRM = BRM (Homo sapiens, UniProt P51531); test: ATPase catalytic activity assay of BRM (ADP-Glo); type: biochemical; conditions: for IC50: read-out: BRM IC50 (μM)*
Method in brief: as §1

BRG-1, sequence (P51532 whole entry): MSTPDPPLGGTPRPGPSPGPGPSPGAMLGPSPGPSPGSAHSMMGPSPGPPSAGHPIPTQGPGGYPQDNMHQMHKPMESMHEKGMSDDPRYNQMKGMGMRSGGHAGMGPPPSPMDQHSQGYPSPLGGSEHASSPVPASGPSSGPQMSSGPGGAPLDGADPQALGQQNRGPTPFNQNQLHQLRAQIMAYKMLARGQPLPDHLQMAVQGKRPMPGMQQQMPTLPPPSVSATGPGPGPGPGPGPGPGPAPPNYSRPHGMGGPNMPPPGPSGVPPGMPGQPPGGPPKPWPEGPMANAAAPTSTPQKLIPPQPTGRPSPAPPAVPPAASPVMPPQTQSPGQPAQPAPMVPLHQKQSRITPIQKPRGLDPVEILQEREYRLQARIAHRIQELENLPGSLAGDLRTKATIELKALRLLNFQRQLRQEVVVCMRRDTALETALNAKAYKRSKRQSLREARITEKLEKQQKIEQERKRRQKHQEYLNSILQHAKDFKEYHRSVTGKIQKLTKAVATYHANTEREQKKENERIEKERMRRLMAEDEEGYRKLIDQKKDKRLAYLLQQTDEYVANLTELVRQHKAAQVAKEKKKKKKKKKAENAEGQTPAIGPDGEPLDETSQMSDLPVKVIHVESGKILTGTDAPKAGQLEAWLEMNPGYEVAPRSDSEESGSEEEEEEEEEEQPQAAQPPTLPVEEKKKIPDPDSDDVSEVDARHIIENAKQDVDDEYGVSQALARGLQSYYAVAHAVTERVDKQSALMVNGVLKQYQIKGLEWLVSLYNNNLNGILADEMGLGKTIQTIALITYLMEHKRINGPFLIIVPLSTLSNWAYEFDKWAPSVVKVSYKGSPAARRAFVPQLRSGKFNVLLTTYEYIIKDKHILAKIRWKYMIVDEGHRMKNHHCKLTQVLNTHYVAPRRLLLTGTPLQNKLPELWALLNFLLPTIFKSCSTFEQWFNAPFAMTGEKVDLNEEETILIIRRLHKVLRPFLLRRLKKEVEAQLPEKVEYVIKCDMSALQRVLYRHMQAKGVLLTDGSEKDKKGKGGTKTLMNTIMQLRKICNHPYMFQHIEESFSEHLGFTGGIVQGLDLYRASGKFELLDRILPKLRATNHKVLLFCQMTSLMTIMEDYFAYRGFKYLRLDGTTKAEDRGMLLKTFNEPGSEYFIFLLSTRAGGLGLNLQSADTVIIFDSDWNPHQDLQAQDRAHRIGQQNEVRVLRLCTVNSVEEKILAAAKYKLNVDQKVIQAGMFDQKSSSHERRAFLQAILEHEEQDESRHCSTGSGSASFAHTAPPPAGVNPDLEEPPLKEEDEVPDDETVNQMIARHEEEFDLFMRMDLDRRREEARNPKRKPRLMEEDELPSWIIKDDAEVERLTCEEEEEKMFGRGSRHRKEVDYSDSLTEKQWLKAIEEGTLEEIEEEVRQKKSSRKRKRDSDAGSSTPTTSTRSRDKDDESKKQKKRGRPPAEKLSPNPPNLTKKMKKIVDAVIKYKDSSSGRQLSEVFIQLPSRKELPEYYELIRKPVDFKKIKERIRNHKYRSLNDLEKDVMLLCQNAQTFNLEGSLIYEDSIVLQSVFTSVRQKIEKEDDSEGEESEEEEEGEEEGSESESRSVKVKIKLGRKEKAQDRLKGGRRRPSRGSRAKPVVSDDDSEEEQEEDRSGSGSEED
BRM, sequence (P51531 whole entry): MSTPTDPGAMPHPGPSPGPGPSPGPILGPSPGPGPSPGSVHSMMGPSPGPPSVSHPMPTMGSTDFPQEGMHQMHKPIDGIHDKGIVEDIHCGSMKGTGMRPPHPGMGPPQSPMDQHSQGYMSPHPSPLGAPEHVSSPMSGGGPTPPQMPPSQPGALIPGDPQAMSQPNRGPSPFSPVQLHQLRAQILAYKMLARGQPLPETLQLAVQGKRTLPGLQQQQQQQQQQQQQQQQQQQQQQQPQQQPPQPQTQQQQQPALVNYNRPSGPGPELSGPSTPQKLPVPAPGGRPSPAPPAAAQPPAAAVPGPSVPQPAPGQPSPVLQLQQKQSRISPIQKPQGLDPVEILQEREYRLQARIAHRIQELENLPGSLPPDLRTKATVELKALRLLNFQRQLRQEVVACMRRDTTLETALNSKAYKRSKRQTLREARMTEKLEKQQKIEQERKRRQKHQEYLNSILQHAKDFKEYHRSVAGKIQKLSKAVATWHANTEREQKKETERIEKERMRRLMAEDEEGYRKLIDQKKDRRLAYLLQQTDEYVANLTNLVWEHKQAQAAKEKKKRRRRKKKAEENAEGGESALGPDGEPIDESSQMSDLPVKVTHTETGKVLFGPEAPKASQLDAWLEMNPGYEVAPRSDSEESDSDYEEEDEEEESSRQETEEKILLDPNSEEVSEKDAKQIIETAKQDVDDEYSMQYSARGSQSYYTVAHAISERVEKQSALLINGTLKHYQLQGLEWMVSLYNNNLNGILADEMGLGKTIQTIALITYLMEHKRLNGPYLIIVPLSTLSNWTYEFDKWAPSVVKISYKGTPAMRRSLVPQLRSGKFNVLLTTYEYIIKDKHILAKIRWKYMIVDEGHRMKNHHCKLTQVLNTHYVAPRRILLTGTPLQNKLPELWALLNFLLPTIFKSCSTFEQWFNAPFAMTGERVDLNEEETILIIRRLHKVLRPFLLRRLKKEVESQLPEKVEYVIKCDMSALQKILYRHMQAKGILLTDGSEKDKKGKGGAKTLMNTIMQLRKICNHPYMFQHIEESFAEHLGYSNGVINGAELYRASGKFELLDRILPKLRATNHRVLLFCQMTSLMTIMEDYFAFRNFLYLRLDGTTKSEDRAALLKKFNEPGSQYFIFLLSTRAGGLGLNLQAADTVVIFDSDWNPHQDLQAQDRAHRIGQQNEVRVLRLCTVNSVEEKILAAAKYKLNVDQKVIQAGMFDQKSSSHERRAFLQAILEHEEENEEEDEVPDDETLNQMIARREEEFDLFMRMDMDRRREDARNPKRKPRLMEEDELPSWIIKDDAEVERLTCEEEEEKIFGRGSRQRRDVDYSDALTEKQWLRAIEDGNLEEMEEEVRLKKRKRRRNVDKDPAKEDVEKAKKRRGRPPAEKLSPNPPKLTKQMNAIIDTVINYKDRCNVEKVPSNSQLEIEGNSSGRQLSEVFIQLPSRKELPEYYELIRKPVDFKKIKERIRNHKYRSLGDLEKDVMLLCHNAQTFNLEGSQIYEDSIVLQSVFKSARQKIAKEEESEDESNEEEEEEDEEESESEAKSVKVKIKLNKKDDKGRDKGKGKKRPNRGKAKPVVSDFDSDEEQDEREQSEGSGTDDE

| SMILES | IC50 (BRG-1) [µM] | Emax (BRG-1) [%] | BRM Max % Inhibition (BRM) [%] | IC50 (BRM) [µM] | IC50 (BRG-1; 30 nM BRG-1, 400 μM ATP) [µM] | Emax (BRG-1; 30 nM BRG-1, 400 μM ATP) [%] | BRM Max % Inhibition (BRM; 30 nM BRM, 400 μM ATP) [%] | IC50 (BRM; 30 nM BRM, 400 μM ATP) [µM] |
| --- | --- | --- | --- | --- | --- | --- | --- | --- |
| C[C@@]1(CO)CCc2ccc(C(=O)NCC(=O)Nc3nc(-c4cccc(-c5cccnc5O)n4)cs3)cc21 [Compound 264, (R)-N-(2-((4-(2′-hydroxy-[2,3′-bipyridin]-6-yl)thiazol-2-yl)amino)-2-oxoethyl)-3-(hydroxymethyl)-3-methyl-2,3-dihydro-1H-indene-5-carboxamide] | > 5 | < 30 | >70 | 1 to 5 |  |  |  |  |
| C[C@@H](N)C(C)(C)c1cccc(C(=O)NCC(=O)Nc2nc(-c3cccc(-c4ccncc4)c3)cs2)c1 [Compound 109] | 1 to 5 | > 50 | >80 | 1 to 5 |  |  |  |  |
| C[C@@H]1CN(c2cccc(-c3csc(NC(=O)CNC(=O)c4cccc5c4OCC[C@@]5(C)C#N)n3)c2)C[C@H](C)O1 [Compound 146, (R)-4-cyano-N-(2-((4-(3-((cis)-2,6-dimethylmorpholino)phenyl)thiazol-2-yl)amino)-2-oxoethyl)-4-methylchroman-8-carboxamide] | > 5 | > 30 | >70 | 0.1 to 1 |  |  |  |  |
| C[C@@H]1CN(c2cccc(-c3csc(NC(=O)CNC(=O)c4ccc5c(c4)[C@@](C)(C#N)CC5)n3)n2)C[C@H](C)O1 [Compound 262, (S)-3-cyano-N-(2-((4-(6-((cis)-2,6-dimethylmorpholino)pyridin-2-yl)thiazol-2-yl)amino)-2-oxoethyl)-3-methyl-2,3-dihydro-1H-indene-5-carboxamide] | 1 to 5 | > 50 | >80 | 1 to 5 |  |  |  |  |
| CC(C)(C(N)=O)c1cccc(C(=O)NCC(=O)Nc2nc(-c3cccc(-c4ccncc4)c3)cs2)c1 [Compound 84, 3-(1-amino-2-methyl-1-oxopropan-2-yl)-N-(2-oxo-2-((4-(3-(pyridin-4-yl)phenyl)thiazol-2-yl)amino)ethyl)benzamide] | 1 to 5 | > 90 | >95 | 0.1 to 1 |  |  |  |  |
| CC1(C#N)CCOc2ccc(C(=O)NCC(=O)Nc3nc(-c4cccc(C(F)F)n4)cs3)cc21 (stereo in doubt) [Compound 430, (S)-4-cyano-N-(2-((4-(6-(difluoromethyl)pyridin-2-yl)thiazol-2-yl)amino)-2-oxoethyl)-4-methylchromane-6-carboxamide] |  |  |  |  | 1 to 5 | > 95 | >95 | 0.1 to 1 |
| C[C@@H]1CN(c2cccc(-c3csc(NC(=O)CNC(=O)c4ccc5c(c4)[C@](C)(CO)CC5)n3)c2)C[C@H](C)O1 [Compound 218, (R)-N-(2-((4-(3-((cis)-2,6-dimethylmorpholino)phenyl)thiazol-2-yl)amino)-2-oxoethyl)-3-(hydroxymethyl)-3-methyl-2,3-dihydro-1H-indene-5-carboxamide] | 1 to 5 | > 80 | >90 | 0.1 to 1 |  |  |  |  |
| CO[C@H]1C[C@@](F)(c2cccc(C(=O)NCC(=O)Nc3nc(-c4cccc(N5C[C@@H](C)O[C@@H](C)C5)n4)cs3)c2)C1 [Compound 426, N-(2-((4-(6-((cis)-2,6-dimethylmorpholino)pyridin-2-yl)thiazol-2-yl)amino)-2-oxoethyl)-3-((cis)-1-fluoro-3-methoxycyclobutyl)benzamide] |  |  |  |  | 1 to 5 | > 95 | >95 | 0.1 to 1 |
| Cn1cc(-c2cccc(-c3csc(NC(=O)CNC(=O)c4cccc(C(C)(C)CO)c4)n3)c2)cn1 [Compound 104] | 1 to 5 | > 70 | >90 | 0.1 to 1 |  |  |  |  |
| CC(C)(CN)c1cccc(C(=O)NCC(=O)Nc2nc(-c3cccc(-c4cc(Cl)cc(Cl)c4)c3)cs2)c1 [Compound 51, 3-(1-amino-2-methylpropan-2-yl)-N-(2-((4-(3′,5′-dichloro-[1,1′-biphenyl]-3-yl)thiazol-2-yl)amino)-2-oxoethyl)benzamide] | > 5 | > 50 | >80 | 0.1 to 1 |  |  |  |  |
| C[C@@H]1CN(c2cccc(-c3csc(NC(=O)CNC(=O)c4cccc5c4OCC[C@@]5(C)CO)n3)c2)C[C@H](C)O1 [Compound 138, (R)-N-(2-((4-(3-((cis)-2,6-dimethylmorpholino)phenyl)thiazol-2-yl)amino)-2-oxoethyl)-4-(hydroxymethyl)-4-methylchroman-8-carboxamide] | > 5 | > 50 | >90 | 0.1 to 1 |  |  |  |  |
| CC(C)S(=O)(=O)c1cccc(C(=O)NCC(=O)Nc2nc(-c3cccc(CO[C@H]4CC[C@H](O)CC4)c3)cs2)c1 [Compound 17, N-(2-((4-(3-((((1R,4R)-4-hydroxycyclohexyl)oxy)methyl)phenyl)thiazol-2-yl)amino)-2-oxoethyl)-3-(isopropylsulfonyl)benzamide] | > 5 | > 60 | >90 | 0.1 to 1 |  |  |  |  |

The next lines start with the values.

| IC50 (BRG-1) [µM] | Emax (BRG-1) [%] | BRM Max % Inhibition (BRM) [%] | IC50 (BRM) [µM] | IC50 (BRG-1; 30 nM BRG-1, 400 μM ATP) [µM] | Emax (BRG-1; 30 nM BRG-1, 400 μM ATP) [%] | BRM Max % Inhibition (BRM; 30 nM BRM, 400 μM ATP) [%] | IC50 (BRM; 30 nM BRM, 400 μM ATP) [µM] | SMILES |
| --- | --- | --- | --- | --- | --- | --- | --- | --- |
| 0.1 to 1 | > 80 | >95 | < 0.1 |  |  |  |  | COc1cc(-c2cccc(-c3csc(NC(=O)CNC(=O)c4cccc(S(=O)(=O)C(C)C)c4)n3)c2)nc(C)n1 [Compound 123, 3-isopropylsulfonyl-N-[2-[[4-[3-(6-methoxy-2-methyl-pyrimidin-4-yl)phenyl]thiazol-2-yl]amino]-2-oxo-ethyl]benzamide] |
| 0.1 to 1 | > 95 | >95 | < 0.1 |  |  |  |  | C[C@@]1(C#N)COCc2ccc(C(=O)NCC(=O)Nc3nc(-c4ccccc4)cs3)cc21 [Compound 323, (R)-4-cyano-4-methyl-N-(2-oxo-2-((4-phenylthiazol-2-yl)amino)ethyl)isochromane-6-carboxamide] |
| 0.1 to 1 | > 90 | >95 | < 0.1 |  |  |  |  | Cc1cc(-c2cccc(-c3csc(NC(=O)CNC(=O)c4cccc(C(C)(C)CO)c4)n3)c2)nc(C)n1 [Compound 93] |
| < 0.1 | > 95 | >95 | < 0.1 |  |  |  |  | C[C@@H](CO)S(=O)(=O)c1cccc(C(=O)NCC(=O)Nc2nc(-c3cccc(-c4ccncc4)c3)cs2)c1 [Compound 115, (S)-3-((1-hydroxypropan-2-yl)sulfonyl)-N-(2-oxo-2-((4-(3-(pyridin-4-yl)phenyl)thiazol-2-yl)amino)ethyl)benzamide] |
| 0.1 to 1 | > 95 | >95 | < 0.1 |  |  |  |  | C[C@@H]1CN(c2cccc(-c3csc(NC(=O)CNC(=O)c4cccc([C@]5(C(F)F)CCOC5)c4)n3)c2)C[C@H](C)O1 [Compound 285] |
| < 0.1 | > 80 | >95 | < 0.1 |  |  |  |  | CC1(C#N)CCc2ccc(C(=O)NCC(=O)Nc3nc(-c4cccc(-c5ccncc5)c4)cs3)cc21 (stereo not drawn) [Compound 76, 3-cyano-3-methyl-N-(2-oxo-2-((4-(3-(pyridin-4-yl)phenyl)thiazol-2-yl)amino)ethyl)-2,3-dihydro-1H-indene-5-carboxamide] |
| < 0.1 | > 95 | >95 | < 0.1 |  |  |  |  | COc1nc(C)cc(-c2cccc(-c3csc(NC(=O)CNC(=O)c4cccc(S(=O)(=O)C(C)C)c4)n3)c2)n1 [Compound 122, 3-isopropylsulfonyl-N-[2-[[4-[3-(2-methoxy-6-methyl-pyrimidin-4-yl)phenyl]thiazol-2-yl]amino]-2-oxoethyl]benzamide] |
| < 0.1 | > 95 | >95 | < 0.1 |  |  |  |  | Cc1cc(-c2cccc(-c3csc(NC(=O)CNC(=O)c4ccc5c(c4)[C@](C)(CO)CC5)n3)c2)nc(C)n1 [Compound 228, (3R)-N-[2-[[4-[3-(2,6-dimethylpyrimidin-4-yl)phenyl]thiazol-2-yl]amino]-2-oxo-ethyl]-3-(hydroxymethyl)-3-methyl-indane-5-carboxamide] |
| 0.1 to 1 | > 95 | >95 | < 0.1 |  |  |  |  | COc1cc(F)cc(-c2csc(NC(=O)C(C)NC(=O)c3ccc4c(c3)[C@](C)(F)COC4)n2)c1 (stereo in doubt) [Compound 334, (S)-4-fluoro-N-((R)-1-((4-(3-fluoro-5-methoxyphenyl)thiazol-2-yl)amino)-1-oxopropan-2-yl)-4-methylisochromane-6-carboxamide] |
| 0.1 to 1 | > 80 | >95 | < 0.1 |  |  |  |  | CNc1cc(-c2cccc(-c3csc(NC(=O)CNC(=O)c4cccc(C(C)(C)CN)c4)n3)c2)ccn1 [Compound 57, 3-(1-amino-2-methylpropan-2-yl)-N-(2-((4-(3-(2-(methylamino)pyridin-4-yl)phenyl)thiazol-2-yl)amino)-2-oxoethyl)benzamide] |
| 0.1 to 1 | > 90 | >90 | < 0.1 |  |  |  |  | C[C@@H]1CN(c2cccc(-c3csc(NC(=O)CNC(=O)c4ccc5c(c4)[C@H](C)COC5)n3)n2)C[C@H](C)O1 [Compound 321, (S)-N-(2-((4-(6-((cis)-2,6-dimethylmorpholino)pyridin-2-yl)thiazol-2-yl)amino)-2-oxoethyl)-4-methylisochromane-6-carboxamide] |
| 0.1 to 1 | > 90 | >95 | < 0.1 |  |  |  |  | Cc1cc(-c2cccc(-c3csc(NC(=O)CNC(=O)c4ccc(C)c(C(C)(C)CN)c4)n3)n2)ncn1 [Compound 201, 3-(2-amino-1,1-dimethyl-ethyl)-4-methyl-N-[2-[[4-[6-(6-methylpyrimidin-4-yl)-2-pyridyl]thiazol-2-yl]amino]-2-oxo-ethyl]benzamide] |
